From ChEMBL document CHEMBL1157158, “Synthesis and neuropharmacological evaluation of 2-aryl- and alkylapomorphines” (Bioorg Med Chem, 2008)

Assays:
D(2) dopamine receptor = D(2) dopamine receptor (Rattus norvegicus, UniProt P61169); assay: Displacement of [3H]spiperone from rat dopamine D2 receptor in brain striatal membrane; type: cell membranes
Mus musculus [1] = assay: Dopaminergic activity in CD1 mouse striatum assessed as dopamine turn over at 3.29 umol/kg, sc relative to control; type: functional
Mus musculus [2] = assay: Dopaminergic activity in CD1 mouse tuberculum olfactorium assessed as dopamine turn over at 3.29 umol/kg, sc relative to control; type: functional
D(3) dopamine receptor = D(3) dopamine receptor (Rattus norvegicus, UniProt P19020); assay: biochemical
Chain of D(3) dopamine receptor (P19020 whole entry): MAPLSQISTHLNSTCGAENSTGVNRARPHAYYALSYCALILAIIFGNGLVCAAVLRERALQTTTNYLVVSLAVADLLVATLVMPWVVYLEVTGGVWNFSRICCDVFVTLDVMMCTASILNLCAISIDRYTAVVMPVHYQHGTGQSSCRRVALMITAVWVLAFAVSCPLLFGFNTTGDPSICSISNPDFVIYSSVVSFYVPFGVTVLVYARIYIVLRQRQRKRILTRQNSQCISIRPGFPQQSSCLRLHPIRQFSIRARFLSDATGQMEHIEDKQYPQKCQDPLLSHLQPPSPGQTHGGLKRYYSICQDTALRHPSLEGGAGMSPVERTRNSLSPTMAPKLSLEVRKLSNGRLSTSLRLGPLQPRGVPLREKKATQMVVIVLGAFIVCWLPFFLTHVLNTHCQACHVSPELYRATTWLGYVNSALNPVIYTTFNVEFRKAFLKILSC
Description: Displacement of [3H]spiperone from rat recombinant dopamine D3 receptor expressed in SF9 cells

Chain of D(2) dopamine receptor (P61169 whole entry): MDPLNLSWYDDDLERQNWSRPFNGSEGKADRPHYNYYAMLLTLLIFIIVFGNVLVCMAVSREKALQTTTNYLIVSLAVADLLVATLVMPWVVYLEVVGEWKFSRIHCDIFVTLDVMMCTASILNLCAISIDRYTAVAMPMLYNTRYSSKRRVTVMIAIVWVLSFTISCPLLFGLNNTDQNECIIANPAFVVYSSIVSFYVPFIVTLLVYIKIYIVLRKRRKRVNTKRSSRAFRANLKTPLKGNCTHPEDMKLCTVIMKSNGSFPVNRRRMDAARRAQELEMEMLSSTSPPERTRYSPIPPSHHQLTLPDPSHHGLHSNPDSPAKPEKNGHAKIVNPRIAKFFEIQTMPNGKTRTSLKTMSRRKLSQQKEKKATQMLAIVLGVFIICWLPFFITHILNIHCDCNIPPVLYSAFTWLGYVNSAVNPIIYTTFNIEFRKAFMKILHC

Row | Structure (SMILES) | IC50 (D(2) dopamine receptor) [nM] | Ki (D(2) dopamine receptor) [nM] | Activity (Mus musculus [1]) [%] | Activity (Mus musculus [2]) [%] | IC50 (D(3) dopamine receptor) [nM] | Ki (D(3) dopamine receptor) [nM]
1 | CN(C)c1ccc(-c2cc3c4c(c2)-c2c(ccc(O)c2O)C[C@H]4N(C)CC3)cc1.Cl.Cl | 484 | 242 | 52.3 | 84.5 | 178 | 78.4
2 | CN1CCc2cc(-c3ccccc3)cc3c2[C@H]1Cc1ccc(O)c(O)c1-3.Cl | 23.3 | 11.7 | 44.2 | 50.9 | 14.7 | 7.7
3 | CN1CCc2cc(-c3ccc(O)cc3)cc3c2[C@H]1Cc1ccc(O)c(O)c1-3.Cl | 8.5 | 4.14 | 43.6 | 39.6 | 3.7 | 1.78
4 | CN1CCc2cc(-c3cccc4c3oc3ccccc34)cc3c2[C@H]1Cc1ccc(O)c(O)c1-3.Cl | 3260 | 1630 | 92 | 106.1 | 49.4 | 22.3
5 | Cc1cc2c3c(c1)-c1c(ccc(O)c1O)C[C@H]3N(C)CC2.Cl | 43 | 20.7 | 42.3 | 43.6 | 82.6 | 40.1
6 | CN1CCc2cccc3c2[C@H]1Cc1ccc(O)c(O)c1-3.CN1CCc2cccc3c2[C@H]1Cc1ccc(O)c(O)c1-3.Cl.Cl.O [APOMORPHINE HYDROCHLORIDE] | – | – | 48.6 | 57.7 | – | –
